Experimental data: PubChem BioAssay (NCI)
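Method: 48-hour compound exposure of cells in 96-well plates, five concentrations, linear interpolation of endpoints. The concentration for 50% growth inhibition is given as GI50. TGI: concentration producing complete growth inhibition.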

Tests used:
Test in all cases: growth of human tumour cells (NCI), 48 h
SR leukemia = test system: SR leukemia
HS 578T breast = test system: HS 578T breast
NCI-H23 lung = test system: NCI-H23 lung
HCC-2998 colon = test system: HCC-2998 colon
OVCAR-4 ovarian = test system: OVCAR-4 ovarian
A498 renal = test system: A498 renal
SK-OV-3 ovarian = test system: SK-OV-3 ovarian
M14 melanoma = test system: M14 melanoma
KM12 colon = test system: KM12 colon
SF-539 CNS = test system: SF-539 CNS

| Compound | GI50 (SR leukemia) [µM] | TGI (SR leukemia) [µM] | GI50 (HS 578T breast) [µM] | TGI (HS 578T breast) [µM] | GI50 (NCI-H23 lung) [µM] | TGI (NCI-H23 lung) [µM] | GI50 (HCC-2998 colon) [µM] | TGI (HCC-2998 colon) [µM] | GI50 (OVCAR-4 ovarian) [µM] | TGI (OVCAR-4 ovarian) [µM] | GI50 (A498 renal) [µM] | TGI (A498 renal) [µM] | GI50 (SK-OV-3 ovarian) [µM] | TGI (SK-OV-3 ovarian) [µM] | GI50 (M14 melanoma) [µM] | TGI (M14 melanoma) [µM] | GI50 (KM12 colon) [µM] | TGI (KM12 colon) [µM] | GI50 (SF-539 CNS) [µM] | TGI (SF-539 CNS) [µM] |
| --- | --- | --- | --- | --- | --- | --- | --- | --- | --- | --- | --- | --- | --- | --- | --- | --- | --- | --- | --- | --- |
| CCCC(CCC)Oc1ccc(CCCC2=C(O)c3ccccc3C(=O)C2=O)cc1 | 3.09 | 8.3 | 11.7 | 37.4 | 5.94 | 21.1 | 2.8 | 10.1 | 8.14 | 20.5 | 7.21 | 20.1 | 12.6 | 28.3 | 9.35 | 22.2 | 6.18 | 22.3 | 5.43 | 18.7 |
| Nc1cc(N)cc(Cc2ccccc2)c1 |  | > 100 |  | > 100 |  | > 100 |  | > 100 |  | > 100 |  | > 100 |  | > 100 |  | > 100 |  | > 100 |  | > 100 |
| C[C@@H]1CC[C@@H]2[C@@H]1[C@H](OC(=O)c1ccc3ccccc3c1)[C@]1(C3CCCCC3)C[C@@H](OC(=O)CO)[C@@]2(C)O1 | 3.4 | 14.4 | 0.023 | 0.0757 | 14.3 | 33.2 | 11.8 | 28.1 | 10.8 | 24.8 | 0.0191 | 0.0679 | 14.4 | 29 | 13.2 | 30.2 | 11.1 | 26.5 | 13.7 | 27.9 |
| CC(=O)[O][Hg][CH2]C1(C)COC(C)([CH2][Hg][O]C(C)=O)CO1 (centres undefined) | 0.607 | 3.59 | 2.61 | 16 | 13.2 | 29.3 | 15.7 | 30.2 | 26.4 | 74.4 | 19.4 | 34.8 | 17.5 | 31.8 | 13.6 | 27.4 | 4.1 | 8.4 | 17.7 | 32.6 |
| CSC(=NC#N)S/C=C/C(=O)c1cccc2ccccc12 | 4.71 | > 100 | 40.4 | > 100 |  |  | 63 | > 100 | 47.9 | > 100 | 40.2 | > 100 | 61.1 | > 100 | 29.9 | > 100 | 29.1 | > 100 | 17.6 | 68.2 |
| COc1ccc(C2CC(c3cccc(OC)c3)=NN2C(=O)c2cc(OC)c(OC)c(OC)c2)cc1 (centres undefined) | 0.359 | > 100 | 1.21 | 5.37 | 2.76 | > 100 | 4.27 | > 100 | 10.8 | > 100 | 1.12 |  | 3.66 | > 100 | 1.56 | > 29.3 | 0.717 | > 100 | 1.62 | 5.3 |
| Oc1c(Cl)cc(CN(Cc2cc(Cl)c(O)c(Cl)c2)C2CCCCC2)cc1Cl |  | > 100 |  | > 100 |  | > 100 |  |  |  | > 100 |  | > 100 |  | > 100 |  | > 100 |  | > 100 |  | > 100 |
| COc1ccc(C2SCC(=O)N2NC(=O)C(O)c2ccccc2)cc1 (centres undefined) | > 100 | > 100 | > 100 | > 100 |  |  | > 100 | > 100 | > 100 | > 100 | > 100 | > 100 | > 100 | > 100 | > 100 | > 100 | > 100 | > 100 | > 100 | > 100 |
| Cc1cc(S(=O)(=O)Nc2nc3ccccc3[nH]2)c(SCc2ccccc2)cc1Cl | 26.1 | > 100 | 78.1 | > 100 | 54.9 | > 100 | 21.4 | > 100 |  |  | > 100 | > 100 | 70.3 | > 100 | > 100 | > 100 | 40.4 | > 100 | 19.8 | 52.8 |
| O=C(O)c1nnsc1-c1csnn1 |  | > 100 |  | > 100 |  | > 100 |  |  |  | > 100 |  | > 100 |  | > 100 |  | > 100 |  | > 100 |  | > 100 |
| Clc1ccc(-c2nc(C(Cl)Cl)nc3cc(-c4ccccc4)nn23)cc1 | 0.645 | 3.94 | 1.38 | > 50 | 0.947 | 2.64 | 0.741 | 1.42 | 0.917 | 3.63 | 0.912 | 2.21 | 1.38 | 4.75 |  |  | 0.884 | 2.89 | 2.34 | > 50 |
